Measurements published in US12129237B2, “Substituted diaminocarboxamide and diaminocarbonitrile pyrimidines, compositions thereof, and methods of treatment therewith” (SIGNAL PHARMACEUTICALS, LLC, priority 2011, dated 2024).

These compounds were tested against T1, JNK1 (Homo sapiens, UniProt P45983) (assay: JNK1 biochemical assays (one or more of: time resolved fluorescence, Z'-LYTE Cascade, radioactive)). Settings: Table 2; JNK1 IC50 activity level; read-out: Act. Level.
T1 construct: purchased Carna Biosciences
T1 sequence (P45983 whole entry): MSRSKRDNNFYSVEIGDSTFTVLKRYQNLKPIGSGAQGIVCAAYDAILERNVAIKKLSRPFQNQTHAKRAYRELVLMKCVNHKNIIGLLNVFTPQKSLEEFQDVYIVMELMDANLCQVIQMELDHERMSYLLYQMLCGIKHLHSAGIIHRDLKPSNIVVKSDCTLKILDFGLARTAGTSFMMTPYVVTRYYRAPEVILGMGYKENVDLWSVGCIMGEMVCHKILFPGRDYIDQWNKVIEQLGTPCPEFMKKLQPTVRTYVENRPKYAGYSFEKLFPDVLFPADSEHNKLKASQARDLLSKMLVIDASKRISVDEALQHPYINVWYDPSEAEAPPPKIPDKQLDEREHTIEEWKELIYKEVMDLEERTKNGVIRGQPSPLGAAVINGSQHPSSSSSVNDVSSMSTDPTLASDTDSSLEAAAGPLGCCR

IC50 [µM] | Structure (SMILES)
0.2 to 0.8 | NC(=O)c1cnc(NCC2CCCCC2)nc1Nc1ccccc1 [Example B-49, 2-(cyclohexylmethylamino)-4-(phenylamino)pyrimidine-5-carboxamide]
< 0.2 | NC(=O)c1cnc(N[C@@H]2CCc3ncccc3C2)nc1N[C@@H]1CCC[C@H](O)C1 [Example B-76, 4-((1R,3S)-3-hydroxycyclohexylamino)-2-((R)-5,6,7,8-tetrahydroquinolin-6-ylamino)pyrimidine-5-carboxamid]
0.2 to 0.8 | CC1(C)CCC(Nc2ncc(C(N)=O)c(N[C@@H]3CCC[C@H](O)C3)n2)c2ccccc21 (stereo partly drawn) [Example B-99, 2-(4,4-dimethyl-1,2,3,4-tetrahydronaphthalen-1-ylamino)-4-((1R,3S)-3-hydroxycyclohexylamino)pyrimidine-5-carboxamide]
< 0.2 | CCOc1cccc(Nc2ncc(C(N)=O)c(Nc3ccccc3)n2)c1 [Example B-26, 2-(3-ethoxyphenylamino)-4-(phenylamino)pyrimidine-5-carboxamide]
< 0.2 | NC(=O)c1cnc(N[C@H]2CCc3cnccc3C2)nc1N[C@@H]1CCC[C@H](O)C1 [Example B-95, 4-((1R,3S)-3-hydroxycyclohexylamino)-2-((S)-5,6,7,8-tetrahydroisoquinolin-6-ylamino)pyrimidine-5-carboxamide]
< 0.2 | COc1cccc(Nc2ncc(C(N)=O)c(Nc3ccccc3)n2)c1 [Example B-25, 2-(3-methoxyphenylamino)-4-(phenylamino)pyrimidine-5-carboxamide]

Same assay, conditions: Table 3; JNK1 IC50 activity level; read-out: Act. Level

IC50 [µM] | Structure (SMILES)
0.2 to 0.8 | CN(C)C(=O)[C@H]1CC[C@H](Nc2ncc(C#N)c(N[C@@H]3CCCOC3)n2)CC1 [Example C-54, (1R,4r)-4-(5-cyano-4-((R)-tetrahydro-2H-pyran-3-ylamino)pyrimidin-2-ylamino)-N,N-dimethylcyclohexanecarboxamide]
< 0.2 | N#Cc1cnc(NC2CCCCC2)nc1N[C@@H]1CCC[C@H](O)C1 [Example C-10, 2-(cyclohexylamino)-4-((1R,3S)-3-hydroxycyclohexylamino) pyrimidine-5-carbonitrile]
< 0.2 | C[C@]1(O)CCC[C@@H](Nc2nc(N[C@H]3CC[C@H](OCC(F)(F)F)CC3)ncc2C#N)C1 [Example C-40]
1 to 10 | CCO[C@H]1CC[C@H](Nc2ncc(C#N)c(NC3CCOCC3)n2)CC1 [Example C-21, 2-((1r,4r)-4-ethoxycyclohexylamino)-4-(tetrahydro-2H-pyran-4-ylamino)pyrimidine-5-carbonitrile]
< 0.2 | CC[C@]1(O)CCC[C@@H](Nc2nc(N[C@H]3CC[C@H](OC)CC3)ncc2C#N)C1 [Example C-33, 4-((1R,3S)-3-ethyl-3-hydroxycyclohexylamino)-2-((1r,4R)-4-methoxycyclohexylamino) pyrimidine-5-carbonitrile]
< 0.2 | C[C@@H]1CC[C@@H](Nc2nc(NC3CCC3)ncc2C#N)C[C@H]1O [Example C-65, 2-(cyclobutylamino)-4-((1R,3R,4R)-3-hydroxy-4-methylcyclohexylamino) pyrimidine-5-carbonitrile]
< 0.2 | N#Cc1cnc(N[C@H]2CC[C@H](OCC(F)(F)F)CC2)nc1N[C@@H]1CCCC[C@H](O)C1 [Example C-30, 4-((1R,3S)-3-hydroxycycloheptylamino)-2-((1r,4R)-4-(2,2,2-trifluoroethoxy)cyclohexylamino) pyrimidine-5-carbonitril]
0.8 to 1 | CO[C@H]1CC[C@H](Nc2ncc(C#N)c(NC(C)C)n2)CC1 [Example C-17, 4-(isopropylamino)-2-((1r,4r)-4-methoxycyclohexylamino) pyrimidine-5-carbonitrile]

Same assay, conditions: one or more of the JNK1 biochemical assays; read-out: Act. Level (JNK1 IC50 activity level)

IC50 [µM] | Structure (SMILES)
< 0.2 | CC1(Nc2nc(N[C@H]3CC[C@H](O)CC3)ncc2C(N)=O)CCCCC1 [Example 357, 2-((1r,4r)-4-hydroxycyclohexylamino)-4-(1-methylcyclohexylamino)pyrimidine-5-carboxamide]
< 0.2 | CC(C)(C)Nc1nc(N[C@H]2CCCC[C@@H](O)C2)ncc1C(N)=O [Example 388, 4-(tert-butylamino)-2-((1S,3R)-3-hydroxycycloheptylamino)pyrimidine-5-carboxamide]
< 0.2 | CC[C@H](Nc1nc(N[C@H]2CC[C@H](O)CC2)ncc1C(N)=O)C1CC1 [Example 384, 4-((S)-1-cyclopropylpropylamino)-2-((1r,4S)-4-hydroxycyclohexylamino)pyrimidine-5-carboxamide]
< 0.2 | NC(=O)c1cnc(N[C@H]2CC[C@H](O)CC2)nc1NC12CC(C(F)(F)F)(C1)C2 [Example 440, 2-((1r,4r)-4-hydroxycyclohexylamino)-4-(3-(trifluoromethyl)bicyclo[1.1.1]pentan-1-ylamino)pyrimidine-5-carboxamide]
< 0.2 | C[C@]1(O)CCC[C@@H](Nc2nc(NC3CCC3)ncc2C(N)=O)C1 [Example 340, 2-(cyclobutylamino)-4-((1R,3S)-3-hydroxy-3-methylcyclohexylamino)pyrimidine-5-carboxamide]
< 0.2 | CCC(C)(C)Nc1ncc(C(N)=O)c(N[C@@H]2CCCC[C@H](O)C2)n1 [Example 349, 4-((1R,3S)-3-hydroxycycloheptylamino)-2-(tert-pentylamino)pyrimidine-5-carboxamide]
< 0.2 | C[C@H](Nc1ncc(C(N)=O)c(N[C@@H]2CC[C@@H](C)[C@H](O)C2)n1)C1CC1 [Example 395, 2-((S)-1-cyclopropylethylamino)-4-((1R,3R,4R)-3-hydroxy-4-methylcyclohexylamino)pyrimidine-5-carboxamide]
< 0.2 | CCC(C)(C)Nc1nc(N[C@H]2CC[C@H](OC3CC3)CC2)ncc1C(N)=O [Example 382, 2-((1r,4r)-4-cyclopropoxycyclohexylamino)-4-(tert-pentylamino)pyrimidine-5-carboxamide]
< 0.2 | CC(C)(C)Nc1nc(N[C@@H]2CCCC[C@H](O)C2)ncc1C(N)=O [Example 376, 4-(tert-butylamino)-2-((1R,3S)-3-hydroxycycloheptylamino)pyrimidine-5-carboxamide]
< 0.2 | CC(C)CC(C)(C)Nc1nc(N[C@H]2CC[C@H](O)CC2)ncc1C(N)=O [Example 369, 4-(2,4-dimethylpentan-2-ylamino)-2-((1r,4r)-4-hydroxycyclohexylamino)pyrimidine-5-carboxamide]
< 0.2 | CC(C)Nc1nc(N[C@H]2CCC[C@@H](O)CC2)ncc1C(N)=O [Example 233, 2-((1S,4R)-4-hydroxycycloheptylamino)-4-(isopropylamino)pyrimidine-5-carboxamide]
< 0.2 | CCO[C@H]1CC[C@H](Nc2ncc(C(N)=O)c(N[C@H](C)C3CC3)n2)CC1 [Example 411, 4-((R)-1-cyclopropylethylamino)-2-((1r,4R)-4-ethoxycyclohexylamino)pyrimidine-5-carboxamide]
< 0.2 | NC(=O)c1cnc(N[C@H]2CC[C@H](O)CC2)nc1NC12CCC(C1)C2 [Example 477, 4-(bicyclo[2.1.1]hexan-1-ylamino)-2-((1r,4r)-4-hydroxycyclohexylamino)pyrimidine-5-carboxamide]
< 0.2 | CCCC(C)(C)Nc1nc(N[C@H]2CC[C@H](OC)CC2)ncc1C(N)=O [Example 392, 2-((1r,4r)-4-methoxycyclohexylamino)-4-(2-methylpentan-2-ylamino)pyrimidine-5-carboxamide]
< 0.2 | CCO[C@H]1CC[C@H](Nc2ncc(C(N)=O)c(N[C@@H]3CCC[C@@H]3CO)n2)CC1 [Example 209, 2-((1r,4R)-4-ethoxycyclohexylamino)-4-((1R,2S)-2-(hydroxymethyl)cyclopentylamino)pyrimidine-5-carboxamide]

Same assay, conditions: tested in one or more of the JNK1 biochemical assays; read-out: Act. Level (JNK1 biochemical assay IC50 activity level)

IC50 [µM] | Structure (SMILES)
< 0.2 | CCO[C@H]1CC[C@H](Nc2ncc(C(N)=O)c(N[C@H]3CCCC[C@@H]3O)n2)CC1 [Example A-77, 2-((1r,4S)-4-ethoxycyclohexylamino)-4-((1S,2S)-2-hydroxycyclohexylamino)pyrimidine-5-carboxamide]
< 0.2 | CO[C@H]1CC[C@H](Nc2ncc(C(N)=O)c(N[C@@H]3CCC[C@@H]3CO)n2)CC1 [Example A-36, 4-((1R,2S)-2-(hydroxymethyl)cyclopentylamino)-2-((1r,4R)-4-methoxycyclohexylamino)pyrimidine-5-carboxamide]
< 0.2 | COC[C@H]1CC[C@@H](Nc2nc(N[C@H]3CC[C@H](O)CC3)ncc2C(N)=O)CC1 [Example A-109, 2-((1r,4r)-4-hydroxycyclohexylamino)-4-((1s,4s)-4-(methoxymethyl)cyclohexylamino)pyrimidine-5-carboxamide]
< 0.2 | NC(=O)c1cnc(N[C@H]2CC[C@H](OCC(F)(F)F)CC2)nc1NC1CCC1 [Example A-174, 4-(cyclobutylamino)-2-((1r,4r)-4-(2,2,2-trifluoroethoxy)cyclohexylamino)pyrimidine-5-carboxamide]
< 0.2 | NC[C@H]1CC[C@@H](Nc2nc(NC3CCCC3)ncc2C(N)=O)CC1 [Example A-131, 4-((1s,4s)-4-(aminomethyl)cyclohexylamino)-2-(cyclopentylamino)pyrimidine-5-carboxamide]
< 0.2 | CCO[C@H]1CC[C@H](Nc2ncc(C(N)=O)c(N[C@@H]3CCC[C@](C)(O)C3)n2)CC1 [Example A-157, 2-((1r,4R)-4-ethoxycyclohexylamino)-4-((1R,3S)-3-hydroxy-3-methylcyclohexylamino)pyrimidine-5-carboxamide]
< 0.2 | NC(=O)c1cnc(N[C@@H]2CCCOC2)nc1N[C@@H]1CCC[C@H](O)C1 [Example A-50, 4-((1R,3S)-3-hydroxycyclohexylamino)-2-((R)-tetrahydro-2H-pyran-3-ylamino)pyrimidine-5-carboxamide]
0.2 to 0.8 | CC(C)CC(=O)N1CCC(Nc2ncc(C(N)=O)c(NC3CCOCC3)n2)CC1 [Example A-110, 2-(1-(3-methylbutanoyl)piperidin-4-ylamino)-4-(tetrahydro-2H-pyran-4-ylamino)pyrimidine-5-carboxamide]
< 0.2 | CC(C)Nc1ncc(C(N)=O)c(N[C@@H]2CCC[C@H](O)C2)n1 [Example A-51, 4-((1R,3S)-3-hydroxycyclohexylamino)-2-(isopropylamino)pyrimidine-5-carboxamide]
